Key:
global ischemia = settings: noncompetitive AMPA receptor antagonist; LaPeillet et al.; cited from earlier work
[1] = test system: global and focal ischemic damage; settings: competitive AMPA receptor antagonist; Sheardown et al., Buchan et al., LePeillet et al.; cited from earlier work

SMILES | melting point [°C] | other results
Cc1nc(CCc2nc3ccc(F)cc3c(=O)n2-c2cccnc2C)cs1 | 151 to 153 | 
CS(=O)(=O)O.Cc1nc(C=Cc2nc3ccc(F)cc3c(=O)n2-c2cccnc2C)cs1 (single isomer, unassigned) | 145 to 146 | 
CC1=NN=C(c2ccc(N)cc2)c2cc3c(cc2C1)OCO3 [GKYI 52466] |  | neuroprotection in rat global ischemia models (global ischemia): effective neuroprotective agent
NS(=O)(=O)c1cccc2c1c([N+](=O)[O-])cc1nc(O)c(O)nc12 [NBQX, 2,3-dihydroxy-6-nitro-7-sulfamoylbenzo[f-]quinoxaline] |  | prevention of global and focal ischemic damage [1]: effective in preventing global and focal ischemic damage
